Test results: the supplement of paper PMC10307832

Tests used:
Experiment in all cases: relative viability (nuclei count vs DMSO), 5 days (fraction); higher = more cells survive
PC-3 [JPC-3] = tested on: PC-3 [JPC-3]
Procedure, shortened: (§1)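 Lung cancer cell lines in 1536-well plates were dosed by pin tool the day after seeding, either with one drug alone or with a fixed anchor-drug dose plus five library-drug doses (not always all listed) in √10 steps. After 5 days, cells were fixed and their nuclei stained in one step (final 0.05% Triton X-100, 1% formaldehyde, 1 ug/ml Hoechst), then counted on 4× images. Relative viability is the nuclei count in treated wells divided by that in vehicle wells. Values are medians of duplicate plates.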

A-427 = tested on: A-427
Procedure, shortened: as §1

NCI-H596 = tested on: NCI-H596
Procedure, shortened: as §1

NCI-H1993 = tested on: NCI-H1993
Procedure, shortened: as §1

HOP-62 = tested on: HOP-62
Procedure, shortened: as §1

EMC-BAC-2 = tested on: EMC-BAC-2
Procedure, shortened: as §1

SW 1573 = tested on: SW 1573
Procedure, shortened: as §1

NCI-H3122 = tested on: NCI-H3122
Procedure, shortened: as §1

NCI-H727 = tested on: NCI-H727
Procedure, shortened: as §1

ABC-1 = tested on: ABC-1
Procedure, shortened: as §1

NCI-H2228 = tested on: NCI-H2228
Procedure, shortened: as §1

NCI-H2009 = tested on: NCI-H2009
Procedure, shortened: as §1

HARA = tested on: HARA
Procedure, shortened: as §1

NCI-H1792 = tested on: NCI-H1792
Procedure, shortened: as §1

NCI-H322M = tested on: NCI-H322M
Procedure, shortened: as §1

LXF-289 = tested on: LXF-289
Procedure, shortened: as §1

O=c1cc(N2CCOCC2)oc2c(-c3cccc4c3sc3ccccc34)cccc12 + CC(C)C[C@H](NC(=O)[C@H](Cc1ccccc1)NC(=O)c1cnccn1)B(O)O [Bortezomib] (partner 0.002 µM)
relative viability (PC-3 [JPC-3]; first compound 0.01 µM): 0.824 | relative viability (PC-3 [JPC-3]; first compound 0.03162 µM): 0.744 | relative viability (PC-3 [JPC-3]; first compound 0.1 µM): 0.745 | relative viability (PC-3 [JPC-3]; first compound 0.3162 µM): 0.749 | relative viability (PC-3 [JPC-3]; first compound 1 µM): 0.862 | relative viability (A-427; first compound 0.01 µM): 0.991 | relative viability (A-427; first compound 0.03162 µM): 1.04 | relative viability (A-427; first compound 0.1 µM): 1.03 | relative viability (A-427; first compound 0.3162 µM): 0.871 | relative viability (A-427; first compound 1 µM): 1.03 | relative viability (NCI-H596; first compound 0.01 µM): 0.897 | relative viability (NCI-H596; first compound 0.03162 µM): 1.07 | relative viability (NCI-H596; first compound 0.1 µM): 1.37 | relative viability (NCI-H596; first compound 0.3162 µM): 1.06 | relative viability (NCI-H596; first compound 1 µM): 1.08 | relative viability (NCI-H1993; first compound 0.01 µM): 1 | relative viability (NCI-H1993; first compound 0.03162 µM): 1.09 | relative viability (NCI-H1993; first compound 0.1 µM): 1.33 | relative viability (NCI-H1993; first compound 0.3162 µM): 1.11 | relative viability (NCI-H1993; first compound 1 µM): 1.07 | relative viability (HOP-62; first compound 0.01 µM): 0.497 | relative viability (HOP-62; first compound 0.03162 µM): 0.565 | relative viability (HOP-62; first compound 0.1 µM): 0.963 | relative viability (HOP-62; first compound 0.3162 µM): 0.81 | relative viability (HOP-62; first compound 1 µM): 0.723 | relative viability (EMC-BAC-2; first compound 0.01 µM): 1.06 | relative viability (EMC-BAC-2; first compound 0.03162 µM): 1.09 | relative viability (EMC-BAC-2; first compound 0.1 µM): 1.15 | relative viability (EMC-BAC-2; first compound 0.3162 µM): 1.11 | relative viability (EMC-BAC-2; first compound 1 µM): 1.02 | relative viability (SW 1573; first compound 0.01 µM): 1.32 | relative viability (SW 1573; first compound 0.03162 µM): 0.985 | relative viability (SW 1573; first compound 0.1 µM): 1.07 | relative viability (SW 1573; first compound 0.3162 µM): 1.12 | relative viability (SW 1573; first compound 1 µM): 0.952 | relative viability (NCI-H3122; first compound 0.01 µM): 1.02 | relative viability (NCI-H3122; first compound 0.03162 µM): 0.907 | relative viability (NCI-H3122; first compound 0.1 µM): 1.02 | relative viability (NCI-H3122; first compound 0.3162 µM): 0.947 | relative viability (NCI-H3122; first compound 1 µM): 1.02 | relative viability (NCI-H727; first compound 0.01 µM): 0.961 | relative viability (NCI-H727; first compound 0.03162 µM): 0.937 | relative viability (NCI-H727; first compound 0.1 µM): 0.764 | relative viability (NCI-H727; first compound 0.3162 µM): 0.84 | relative viability (NCI-H727; first compound 1 µM): 0.79 | relative viability (ABC-1; first compound 0.01 µM): 0.331 | relative viability (ABC-1; first compound 0.03162 µM): 0.347 | relative viability (ABC-1; first compound 0.1 µM): 0.336 | relative viability (ABC-1; first compound 0.3162 µM): 0.261 | relative viability (ABC-1; first compound 1 µM): 0.332 | relative viability (NCI-H2228; first compound 0.03162 µM): 0.794 | relative viability (NCI-H2228; first compound 0.1 µM): 0.926 | relative viability (NCI-H2228; first compound 0.3162 µM): 1.33 | relative viability (NCI-H2228; first compound 1 µM): 1.14 | relative viability (NCI-H2009; first compound 0.01 µM): 1.03 | relative viability (NCI-H2009; first compound 0.03162 µM): 1.01 | relative viability (NCI-H2009; first compound 0.1 µM): 0.89 | relative viability (NCI-H2009; first compound 0.3162 µM): 0.967 | relative viability (NCI-H2009; first compound 1 µM): 1.01 | relative viability (HARA; first compound 0.01 µM): 1.16 | relative viability (HARA; first compound 0.03162 µM): 1.17 | relative viability (HARA; first compound 0.1 µM): 1.19 | relative viability (HARA; first compound 0.3162 µM): 1.1 | relative viability (HARA; first compound 1 µM): 1.1 | relative viability (NCI-H1792; first compound 0.01 µM): 0.965 | relative viability (NCI-H1792; first compound 0.03162 µM): 0.912 | relative viability (NCI-H1792; first compound 0.1 µM): 0.965 | relative viability (NCI-H1792; first compound 0.3162 µM): 0.938 | relative viability (NCI-H1792; first compound 1 µM): 0.955 | relative viability (NCI-H322M; first compound 0.01 µM): 1.24 | relative viability (NCI-H322M; first compound 0.03162 µM): 1.39 | relative viability (NCI-H322M; first compound 0.3162 µM): 1.19 | relative viability (NCI-H322M; first compound 1 µM): 1.03 | relative viability (LXF-289; first compound 0.01 µM): 1.01 | relative viability (LXF-289; first compound 0.03162 µM): 0.967 | relative viability (LXF-289; first compound 0.1 µM): 1.1 | relative viability (LXF-289; first compound 0.3162 µM): 1.03 | relative viability (LXF-289; first compound 1 µM): 1.05
